# Reference: publication PMC11846289, “New tetrahydroisoquinolines bearing nitrophenyl group targeting HSP90 and RET enzymes: synthesis, characterization and biological evaluation” (BMC Chemistry, 2025)
# Key:
# [1] = test system: MG-63 (human osteosarcoma); experiment: one spot 100 µg/ml cytotoxicity, MG-63; assay type: cell-based; details: for inhibition at 100 µg/mL: Homo sapiens, MG-63, percent inhibition, read-out: one spot concentration inhibition, MG-63
# [2] = test system: HCT116 (colon carcinoma human); experiment: one spot 100 µg/ml cytotoxicity, HCT116; assay type: cell-based; details: for inhibition at 100 µg/mL: Homo sapiens, HCT-116, percent inhibition, read-out: one spot concentration inhibition, HCT116
# [3] = test system: CACO2 (colon carcinoma human); experiment: one spot 100 µg/ml cytotoxicity, CACO2; assay type: cell-based; details: for inhibition at 100 µg/mL: Homo sapiens, Caco-2, percent inhibition, read-out: one spot concentration inhibition, CACO2
# [4] = test system: A549 (human lung carcinoma); experiment: one spot 100 µg/ml cytotoxicity, A549; assay type: cell-based; details: for inhibition at 100 µg/mL: Homo sapiens, A549, percent inhibition, read-out: one spot concentration inhibition, A549
# [5] = test system: H460 (human lung carcinoma); experiment: one spot 100 µg/ml cytotoxicity, H460; assay type: cell-based; details: for inhibition at 100 µg/mL: Homo sapiens, NCI-H460, percent inhibition, read-out: one spot concentration inhibition, H460
# [6] = test system: HUH7 (human liver carcinoma); experiment: one spot 100 µg/ml cytotoxicity, HUH7; assay type: cell-based; details: for inhibition at 100 µg/mL: Homo sapiens, Huh-7, percent inhibition, read-out: one spot concentration inhibition, HUH7
# [7] = test system: HEPG2 (human liver carcinoma); experiment: one spot 100 µg/ml cytotoxicity, HEPG2; assay type: cell-based; details: for inhibition at 100 µg/mL: Homo sapiens, HepG2, percent inhibition, read-out: one spot concentration inhibition, HEPG2
# [8] = test system: MCF7 (human breast carcinoma); experiment: one spot 100 µg/ml cytotoxicity, MCF7; assay type: cell-based; details: for inhibition at 100 µg/mL: Homo sapiens, MCF7, percent inhibition, read-out: one spot concentration inhibition, MCF7
# [9] = test system: normal human skin cell line (HSF); experiment: one spot 100 µg/ml cytotoxicity, normal skin cell line HSF; assay type: cell-based; details: for cytotoxicity at 100 µg/mL / inhibition at 100 µg/mL: Homo sapiens; for cytotoxicity at 100 µg/mL: HSF, read-out: Inhibition percent of HSF cell line; for inhibition at 100 µg/mL: read-out: one spot concentration inhibition, HSF
# HSF = experiment: IC50 against normal cell line HSF; assay type: cell-based, human; details: normal skin cell line HSF; for IC50: Homo sapiens, read-out: IC50 FOR HSF ± S.D.
# MCF7 cell line = experiment: MTT in vitro cytotoxicity, MCF7; assay type: cell-based, human; details: for Selectivity Index = IC50 of HSF/ IC50 of MCF7: HSF vs MCF7; for IC50: Homo sapiens, read-out: IC50 for MCF7 ± S.D
# Procedure: (§1) Using the MTT test method, the in vitro cytotoxicity of our synthesized compounds at different doses ranging from […] was examined in two cell lines, HEPG2 and MCF7, to examine 50% of the cancer cells dying.
# (§2) Some of the synthesized compounds were tested as anticancer activity for the IC50 against two cell lines HEPG2 and MCF7 cells according to method. All cell lines were obtained from national cancer institute, Cairo—Egypt.
# HEPG2 cell line = experiment: MTT in vitro cytotoxicity, HEPG2; assay type: cell-based, human; details: for Selectivity Index = IC50 of HSF/IC50 of HEPG2: HSF vs HEPG2; for IC50: Homo sapiens, read-out: IC50 for HEPG2 ± S.D
# Procedure: as §1, §2
Structure (SMILES),inhibition at 100 µg/mL [1] [%],inhibition at 100 µg/mL [2] [%],inhibition at 100 µg/mL [3] [%],inhibition at 100 µg/mL [4] [%],inhibition at 100 µg/mL [5] [%],inhibition at 100 µg/mL [6] [%],inhibition at 100 µg/mL [7] [%],inhibition at 100 µg/mL [8] [%],cytotoxicity at 100 µg/mL ([9]; one spot 100 µg/ml) [%],"inhibition at 100 µg/mL ([9]; 100 µg/ml, supplement Table S1) [%]",IC50 (HSF) [µg/mL],Selectivity Index = IC50 of HSF/ IC50 of MCF7 (MCF7 cell line),"IC50 (MCF7 cell line; MTT, MCF7) [µg/mL]",Selectivity Index = IC50 of HSF/IC50 of HEPG2 (HEPG2 cell line),"IC50 (HEPG2 cell line; MTT, HEPG2) [µg/mL]",further results
"CC(=O)C1C(c2cccc([N+](=O)[O-])c2)c2c(C)[nH]c(=S)c(C#N)c2CC1(C)O (stereo not drawn) [Compound 2a, 7-Acetyl-4-cyano-1,6-dimethyl-6-hydroxy-8-(3-nitrophenyl)−5,6,7,8-tetra-hydroisoquinoline-3(2H)-thione]",41.9,62.3,55.1,42.4,55.3,27.4,61.3,74,48,46.2,100,> 2,35 ± 0.061,1.2,82 ± 0.054,Selectivity Index = IC50 of HSF/ IC50 of MCF7 (MCF7 cell line; listed as 2A): 2.8
"CCOC(=O)CSc1nc(C)c2c(c1C#N)CC(C)(O)C(C(C)=O)C2c1cccc([N+](=O)[O-])c1 (stereo not drawn) [Compound 4, Ethyl 2-[(7-acetyl-4-cyano-1,6-dimethyl-6-hydroxy-8-(3-nitrophenyl)−5,6,7,8-tetra-hydroisoquinolin-3-yl)thio]acetate]",53.8,56.8,64.4,47.2,66.8,27.5,62.1,76.3,50,49.4,100,2.1,47 ± 0.055,1.2,80 ± 0.07,
"CC(=O)C1C(c2ccc([N+](=O)[O-])cc2)c2c(C)nc(SCC#N)c(C#N)c2CC1(C)O (stereo not drawn) [Compound 5, 2-[(7-Acetyl-4-cyano-1,6-dimethyl-6-hydroxy-8-(4-nitrophenyl)−5,6,7,8-tetra-hydroisoquinolin-3-yl)thio]acetoonitriile]",55.7,58.9,61.5,55.2,66.6,35.5,68.2,67.6,70,66.8,71,2.1,33 ± 0.042,0.73,97 ± 0.053,
"CC(=O)c1ccc(NC(=O)CSc2nc(C)c3c(c2C#N)CC(C)(O)C(C(C)=O)C3c2cccc([N+](=O)[O-])c2)cc1 (stereo not drawn) [Compound 6a, 2-[(7-Acetyl-4-cyano-1,6-dimethyl-6-hydroxy-8-(3-nitrophenyl)−5,6,7,8-tetra-hydroisoquinolin-3-yl)thio]-N-(4-acetylphenyl)acetamide]",45.8,58.1,54.8,20.3,63.5,38.6,59.5,66.4,56,53.5,89,> 2,21 ± 0.057,,> 100,Selectivity Index = IC50 of HSF/ IC50 of MCF7 (MCF7 cell line; listed as 6A): 4.2
"CC(=O)c1ccc(NC(=O)c2sc3nc(C)c4c(c3c2N)CC(C)(O)C(C(C)=O)C4c2cccc([N+](=O)[O-])c2)cc1 (stereo not drawn) [Compound 7a, 7-Acetyl-N-(4-acetylophenyl)−1-amino-5,8-dimethyl-8-hydroxy-6-(3-nitro-phenyl)−6,7,8,9-tetrahydrothieno[2,3-c]isoquinoline-2-carboxamide]",,,,,,,,,,,,1.8,,0.92,,"one spot concentration inhibition, MG-63 ([1]; percent inhibition): 50.44%; one spot concentration inhibition, HCT116 ([2]; percent inhibition): 59.7%; one spot concentration inhibition, CACO2 ([3]; percent inhibition): 58.2%; one spot concentration inhibition, A549 ([4]; percent inhibition): 46.81%; one spot concentration inhibition, H460 ([5]; percent inhibition): 59.87%; one spot concentration inhibition, HUH7 ([6]; percent inhibition): 32.35%; one spot concentration inhibition, HEPG2 ([7]; percent inhibition): 58.67%; one spot concentration inhibition, MCF7 ([8]; percent inhibition): 57.92%; one spot concentration inhibition, HSF ([9]; 100 µg/ml, supplement Table S1): 51.85%; Inhibition percent of HSF cell line ([9]; one spot 100 µg/ml): 55%; IC50 FOR HSF ± S.D. (HSF): 90 µg/mL; IC50 for MCF7 ± S.D (MCF7 cell line; MTT, MCF7): 50 ± 0.031 µg/mL; IC50 for HEPG2 ± S.D (HEPG2 cell line; MTT, HEPG2): 97 ± 0.054 µg/mL"
"CC(=O)C1C(c2cccc([N+](=O)[O-])c2)c2c(C)nc(SCC(=O)Nc3cccc4ccccc34)c(C#N)c2CC1(C)O (stereo not drawn) [Compound 8a, 2-[(7-Acetyl-4-cyano-1,6-dimethyl-6-hydroxy-8-(3-nitrophenyl)−5,6,7,8-tetrahydro-isoquinolin-3-yl)thio]-N-(naphthalen-1-yl)acetamide]",38.5,56.1,53.2,46.2,59.6,25.9,60,72.4,59,56.9,84,1.6,50 ± 0.019,0.95,88 ± 0.072,
"CC(=O)C1C(c2ccc([N+](=O)[O-])cc2)c2c(C)nc(SCC(=O)Nc3cccc4ccccc34)c(C#N)c2CC1(C)O (stereo not drawn) [Compound 8b, 2-[(7-Acetyl-4-cyano-1,6-dimethyl-6-hydroxy-8-(4-nitrophenyl)−5,6,7,8-tetrahydro-isoquinolin-3-yl)thio]-N-(naphthalen-1-yl)acetamide]",57.5,67.5,41.7,15.2,62,30.2,66.6,57.2,50,48.2,100,> 2,12 ± 0.056,1.1,94 ± 0.82,Selectivity Index = IC50 of HSF/ IC50 of MCF7 (MCF7 cell line; listed as 8B): 8.3
"CC(=O)C1C(c2ccc([N+](=O)[O-])cc2)c2c(C)nc3sc(C(=O)Nc4cccc5ccccc45)c(N)c3c2CC1(C)O (stereo not drawn) [Compound 9b, 7-Acetyl-1-amino-N-(naphthalen-1-yl)−5,8-dimethyl-8-hydroxy-6-(4-Nitrophenyl)−6,7,8,9-tetrahydrothieno[2,3-c]isoquinoline-2-carboxamide]",30.2,55.6,51.7,45,58,35.7,70,55.2,58,56.2,86,1.1,80 ± 0.05,0.98,87 ± 0.61,
"CC(=O)C1C(c2cccc([N+](=O)[O-])c2)c2c(C)nc3sc(C(=O)Nc4nc5ccccc5s4)c(N)c3c2CC1(C)O (stereo not drawn) [Compound 10, 7-Acetyl-1-amino-N-(benzthiazol-2-yl)−5,8-dimethyl-8-hydroxy-6-(3-nitrophenyl)−6,7,8,9-tetrahydrothieno[2,3-c]isoquinoline-2-carboxamide]",46.7,59.2,60.6,47.4,63.3,21.8,55.2,75.4,56,54.7,89,,> 100,,> 100,
"COc1cccc2c1C(=O)c1c(O)c3c(c(O)c1C2=O)C[C@@](O)(C(=O)CO)C[C@@H]3O[C@H]1C[C@H](N)[C@H](O)[C@H](C)O1 [Doxorubicin, reference compound]",63.8,70.9,74.8,32,72.9,52.8,58.9,74,60,58.9,83,18.1,4.58 ± 0.081,20.1,4.13 ± 0.054,
